We go through ten molecules from patent publication US20250288704A1, “CXCR4-LIGANDS FOR DIAGNOSTIC AND THERAPEUTIC USE AND PRECURSORS THEREOF” (priority 2021, published 2025).

A word on the IC50: it is the midpoint of a concentration-inhibition curve.

Positions of bridges follow the written chain, without caps; N, C: chain ends. Non-standard residues stand in square brackets, D forms with d. Residues, ends and D or L forms follow the SMILES beside them. Groups on a side chain read outwards from the residue. Chains are numbered I, II in the order given. *: point of attachment. DOTA = O=C(O)CN1CCN(CC(=O)O)CCN(CC(=O)*)CCN(CC(=O)O)CC1; dTyr(3-I) = N[C@H](Cc1ccc(O)c(I)c1)C(=O)O; 2Nal = N[C@@H](Cc1ccc2ccccc2c1)C(=O)O; dCit = NC(=O)NCCC[C@@H](N)C(=O)O; dNMeOrn = CN[C@H](CCCN)C(=O)O; 4Amb = NCc1ccc(C(=O)O)cc1; Mercaptoacetyl = O=C(CS)*; 4Abz = Nc1ccc(C(=O)O)cc1; dDap = NC[C@@H](N)C(=O)O

Sequence of CXCR4 (P61073 whole entry): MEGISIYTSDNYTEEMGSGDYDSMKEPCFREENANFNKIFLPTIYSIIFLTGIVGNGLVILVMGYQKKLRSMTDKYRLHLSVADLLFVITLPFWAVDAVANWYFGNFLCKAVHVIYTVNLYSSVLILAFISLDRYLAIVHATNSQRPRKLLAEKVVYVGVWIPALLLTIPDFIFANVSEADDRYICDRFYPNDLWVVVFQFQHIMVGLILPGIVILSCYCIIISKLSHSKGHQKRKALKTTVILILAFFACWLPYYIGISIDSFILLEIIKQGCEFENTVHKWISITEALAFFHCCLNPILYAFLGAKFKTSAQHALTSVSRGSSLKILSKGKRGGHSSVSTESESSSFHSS

One experiment addresses CXCR4 (Homo sapiens, UniProt P61073). Briefly: Determination of IC50: competition with 125I-Fc-131 on CXCR4-positive Jurkat cells.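 Note: test compound at 10^−5 to 10^−11 M competed for 2 h at 8 °C with the radioligand on 400,000 cells per well, bound versus free activity measured by γ-counting.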 Set-up: CXCR4-positive Jurkat T lymphocyte cells were grown in Gibco's RPMI 1640 GlutaMAX medium; endogenous in cells; host or cells: Jurkat T lymphocyte cells (whole cells in suspension, 400.000 per tube). The format is binding.
Settings: not given
`C[C@@H](NC(=O)[C@@H](CCCNC(=N)N)NC(=O)[C@@H](CN)NC(=O)CN1CCN(CC(=O)O)CCN(CC(=O)O)CCN(CC(=O)O)CC1)C(=O)NCc1ccc(C(=O)NCCC[C@@H]2C(=O)N[C@@H](CCCNC(=N)N)C(=O)N[C@@H](Cc3ccc4ccccc4c3)C(=O)NCC(=O)N[C@H](Cc3ccc(O)c(I)c3)C(=O)N2C)cc1` [CXCR4-DOTA-2] (cyclo([dTyr(3-I)][dNMeOrn]([4Amb-dA-dR-dDap-DOTA])R[2Nal]G)): the IC50 stood at 7.03 ± 0.59 nM.

With `CC[C@H](C)[C@@H]([C@@H](CC(=O)N1CCC[C@H]1[C@H](OC)[C@@H](C)C(=O)N[C@H](C)C(O)c1ccccc1)OC)N(C)C(=O)[C@@H](NC(=O)[C@H](C(C)C)N(C)C(=O)OCc1ccc(NC(=O)[C@H](CCCNC(N)=O)NC(=O)[C@@H](NC(=O)CCCCCN2C(=O)CC(SC[C@@H](N)C(=O)NC(CCCNC(=N)N)C(=O)N[C@H](C)C(=O)Nc3ccc(C(=O)NCCC[C@@H]4C(=O)N[C@@H](CCCNC(=N)N)C(=O)N[C@H](Cc5ccc6ccccc6c5)C(=O)NCC(=O)N[C@@H](Cc5ccc(O)cc5)C(=O)N4C)cc3)C2=O)C(C)C)cc1)C(C)C` (stereo partly shown) [CXCR4-MMAE-1], the IC50 amounted to 99.8 ± 7.55 nM.

`C[C@@H](NC(=O)[C@@H](CCCNC(=N)N)NC(=O)[C@@H](C)NC(=O)[C@@H](CO)NC(=O)[C@@H](CO)NC(=O)[C@@H](CO)NC(=O)CS)C(=O)Nc1ccc(C(=O)NCCC[C@@H]2C(=O)N[C@@H](CCCNC(=N)N)C(=O)N[C@@H](Cc3ccc4ccccc4c3)C(=O)NCC(=O)N[C@H](Cc3ccc(O)cc3)C(=O)N2C)cc1` [Tc-CXCR4-2] (I: Mercaptoacetyl-[dS][dS][dS][dA][dR][dA][4Abz] / II: cyclo([dY][dNMeOrn]R[2Nal]G); amide I:C-II:2) yielded an IC50 of 32.4 ± 9.9 nM.

`C[C@@H](NC(=O)[C@@H](CCCNC(=N)N)NC(=O)[C@@H](CCCNC(=N)N)NC(=O)[C@@H](CO)NC(=O)[C@@H](CO)NC(=O)[C@@H](CO)NC(=O)CS)C(=O)Nc1ccc(C(=O)NCCC[C@@H]2C(=O)N[C@@H](CCCNC(=N)N)C(=O)N[C@@H](Cc3ccc4ccccc4c3)C(=O)NCC(=O)N[C@H](Cc3ccc(O)cc3)C(=O)N2C)cc1` [Tc-CXCR4-3] (I: Mercaptoacetyl-[dS][dS][dS][dR][dR][dA][4Abz] / II: cyclo([dY][dNMeOrn]R[2Nal]G); amide I:C-II:2) had an IC50 of 184 ± 25.3 nM.

As for `C[C@@H](NC(=O)[C@@H](CCCNC(=N)N)NC(=O)[C@@H](Cc1ccccc1)NC(=O)[C@@H](CO)NC(=O)[C@@H](CO)NC(=O)[C@@H](CO)NC(=O)CS)C(=O)Nc1ccc(C(=O)NCCC[C@@H]2C(=O)N[C@@H](CCCNC(=N)N)C(=O)N[C@@H](Cc3ccc4ccccc4c3)C(=O)NCC(=O)N[C@H](Cc3ccc(O)cc3)C(=O)N2C)cc1` [Tc-CXCR4-4] (I: Mercaptoacetyl-[dS][dS][dS][dF][dR][dA][4Abz] / II: cyclo([dY][dNMeOrn]R[2Nal]G); amide I:C-II:2), the IC50 stood at 3490 ± 502 nM.

Staying with this experiment, now noted: unlabeled or cold (natGa/natLu) compound vs 125I-Fc-131, Jurkat cells; read-out: IC50.
Turning to `C[C@@H](NC(=O)[C@@H](CCCNC(=N)N)NC(=O)[C@@H](CN)NC(=O)CN1CCN(CC(=O)O)CCN(CC(=O)O)CCN(CC(=O)O)CC1)C(=O)NCc1ccc(C(=O)NCCC[C@@H]2C(=O)N[C@@H](CCCNC(=N)N)C(=O)N[C@@H](Cc3ccc4ccccc4c3)C(=O)NCC(=O)N[C@H](Cc3ccc(O)cc3)C(=O)N2C)cc1` [CXCR4-DOTA-1 [Ga]] (cyclo([dY][dNMeOrn]([4Amb-dA-dR-dDap-DOTA])R[2Nal]G)), the half-inhibitory concentration (IC50) was 2.95 ± 0.59 nM.

For `C[C@@H](NC(=O)[C@@H](CCCNC(=N)N)NC(=O)[C@@H](CN)NC(=O)CN1CCN(CC(=O)O)CCN(CC(=O)O)CCN(CC(=O)O)CC1)C(=O)NCc1ccc(C(=O)NCCC[C@@H]2C(=O)N[C@@H](CCCNC(=N)N)C(=O)N[C@@H](Cc3ccc4ccccc4c3)C(=O)NCC(=O)N[C@H](Cc3ccc(O)cc3)C(=O)N2C)cc1` [CXCR4-DOTA-1] (cyclo([dY][dNMeOrn]([4Amb-dA-dR-dDap-DOTA])R[2Nal]G)), the 50% inhibitory concentration (IC50) was 12.1 ± 2.42 nM.

As to `C[C@@H](NC(=O)[C@@H](CCCNC(=N)N)NC(=O)[C@@H](CN)NC(=O)CN1CCN(CC(=O)O)CCN(CC(=O)O)CCN(CC(=O)O)CC1)C(=O)Nc1ccc(C(=O)NCCC[C@@H]2C(=O)N[C@@H](CCCNC(=N)N)C(=O)N[C@@H](Cc3ccc4ccccc4c3)C(=O)NCC(=O)N[C@H](Cc3ccc(O)cc3)C(=O)N2C)cc1` [CXCR4-DOTA-3] (cyclo([dY][dNMeOrn]([4Abz-dA-dR-dDap-DOTA])R[2Nal]G)), the IC50 is 3.16 ± 0.63 nM.

As for `C[C@@H](NC(=O)[C@@H](CCCNC(=N)N)NC(=O)[C@@H](CN)NC(=O)CN1CCN(CC(=O)O)CCN(CC(=O)O)CCN(CC(=O)O)CC1)C(=O)Nc1ccc(C(=O)NCCC[C@@H]2C(=O)N[C@@H](CCCNC(=N)N)C(=O)N[C@@H](Cc3ccc4ccccc4c3)C(=O)NCC(=O)N[C@H](Cc3ccc(O)c(I)c3)C(=O)N2C)cc1` [CXCR4-DOTA-4] (cyclo([dTyr(3-I)][dNMeOrn]([4Abz-dA-dR-dDap-DOTA])R[2Nal]G)), the 50% inhibitory concentration (IC50) is 4.64 ± 0.96 nM.

Turning to `C[C@@H](NC(=O)[C@@H](CCCNC(N)=O)NC(=O)[C@@H](CN)NC(=O)CN1CCN(CC(=O)O)CCN(CC(=O)O)CCN(CC(=O)O)CC1)C(=O)Nc1ccc(C(=O)NCCC[C@@H]2C(=O)N[C@@H](CCCNC(=N)N)C(=O)N[C@@H](Cc3ccc4ccccc4c3)C(=O)NCC(=O)N[C@H](Cc3ccc(O)cc3)C(=O)N2C)cc1` [CXCR4-DOTA-5] (cyclo([dY][dNMeOrn]([4Abz-dA-dCit-dDap-DOTA])R[2Nal]G)), the IC50 was 21.3 ± 6.64 nM.
